Counter-ions that a name gives are not always drawn.
Tested on: dogs
Experiment: Antitussive activity (50%-antitussive effective dose AtD50; efficiency ratio relative to codeine phosphate)
Assay type: in vivo
Details: Canis lupus familiaris, iv, read-out: AtD50 (50%-antitussive effective dose)
Protocol: route of administration:
From the efficiency rate obtained upon each administration step, 50%-antitussive effective dose (AtD50) was calculated according to the Litchfield-Wilcoxon method. Further, efficiency ratio relative to codeine phosphate was also determined.
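Wherever LD50 is given: animals allocated into more than five groups, with five mice per group.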

SMILES	ED50
COc1ccccc1N=C(NC1CCCCC1)c1cccc(C)c1.Cl [Compound 23, N-cyclohexyl, N'-o-methoxyphenyl-m-toluamidine hydrochloride]	4.29 mg/kg
Cc1ccccc1C(=NC1CCCCC1)Nc1ccccc1 [Compound 18, N-cyclohexyl, N'-phenol-o-toluamidine hydrochloride]	5.15 mg/kg
Cc1cccc(N=C(NC2CCCCC2)c2ccccc2C)c1.Cl [Compound 20, N-cyclohexyl, N'-m-tolyl-o-toluamidine hydrochloride]	4.29 mg/kg

Same assay, conditions: Canis lupus familiaris; intravenous injection; Litchfield-Wilcoxon method; read-out: AtD50 (50%-antitussive effective dose)

SMILES	ED50
COc1ccc(C(=Nc2ccccc2C)NC2CCCCC2)cc1.Cl [Compound 39, N-cyclohexyl, N'-o-tolyl-p-anisamidine hydrochloride]	3.58 mg/kg
Cc1ccc(C(=Nc2cccc(C)c2)NC2CCCCC2)cc1.Cl [Compound 32, N-cyclohexyl, N'-m-tolyl-p-toluamidine hydrochloride]	2.48 mg/kg
COc1cccc(N=C(NC2CCCCC2)c2ccc(C)cc2)c1.Cl [Compound 33, N-cyclohexyl, N'-m-methoxyphenyl-p-toluamidine hydrochloride]	5.15 mg/kg
Cc1cccc(C)c1N=C(NC1CCCCC1)c1ccccc1.Cl [Compound 45, N-cyclohexyl, N'-2,6-xylyl-benzamidine hydrochloride]	4.29 mg/kg
Cc1ccccc1C(=NC1CCCCC1)Nc1cccc(C)c1C [Compound 22, N-cyclohexyl, N'-2,3,-xylyl-o-toluamidine hydrochloride]	3.58 mg/kg
CCc1cccc(N=C(NC2CCCCC2)c2ccccc2)c1.Cl [Compound 44, N-cyclohexyl, N'-m-ethylphenyl-benzamidine hydrochloride]	4.29 mg/kg
Cc1ccccc1N=C(NC1CCCCC1)c1ccccc1C.Cl [Compound 19, N-cyclohexyl, N'-o-tolyl-o-toluamidine hydrochloride]	5.15 mg/kg
CCc1ccccc1N=C(NC1CCCCC1)c1cccc(C)c1.Cl [Compound 27, N-cyclohexyl, N'-o-ethylphenyl-m-toluamidine hydrochloride]	5.15 mg/kg
CCc1ccccc1N=C(NC1CCCCC1)c1ccc(C)cc1.Cl [Compound 30, N-cyclohexyl, N'-o-ethylphenyl-p-toluamidine hydrochloride]	4.29 mg/kg
COc1cccc(N=C(NC2CCCCC2)c2ccccc2C)c1.O=C(O)C(=O)O [Compound 24, N-cyclohexyl, N'-m-methoxyphenyl-o-toluamidine oxalate]	5.15 mg/kg
COc1cccc(N=C(NC2CCCCC2)c2cccc(C)c2)c1.O=C(O)C(=O)O [Compound 28, N-cyclohexyl, N'-m-methoxyphenyl-m-toluamidine oxalate]	5.15 mg/kg
Cc1ccc(N=C(NC2CCCCC2)c2cccc(C)c2)cc1.Cl [Compound 25, N-cyclohexyl, N'-p-tolyl-m-toluamidine hydrochloride]	4.29 mg/kg
Cc1cc(C)cc(N=C(NC2CCCCC2)c2ccccc2)c1.Cl [Compound 43, N-cyclohexyl, N'-3,5-xylyl-benzamidine hydrochloride]	3.58 mg/kg
Cc1cc(C)c(NC(=NC2CCCCC2)c2ccccc2)c(C)c1 [Compound 46, N-cyclohexyl, N'-2,4,6-trimethyl-phenyl-benzamidine hydrochloride]	5.15 mg/kg
COc1ccc(C(=Nc2ccccc2)NC2CCCCC2)cc1.Cl [Compound 38, N-cyclohexyl, N'-phenyl-p-anisamidine hydrochloride]	2.98 mg/kg
COc1cccc(N=C(NC2CCCCC2)c2ccccc2OC)c1.Cl [Compound 37, N-cyclohexyl, N'-m-methoxyphenyl-o-methoxybenzamidine hydrochloride]	2.98 mg/kg
Cc1cccc(C(=Nc2ccccc2C)NC2CCCCC2)c1.Cl [Compound 26, N-cyclohexyl, N'-o-tolyl-m-toluamidine hydrochloride]	2.98 mg/kg
Cc1ccc(C(=NC2CCCCC2)Nc2cccc(C)c2C)cc1 [Compound 31, N-cyclohexyl, N'-2,3,-xylyl-p-toluamidine hydrochloride]	2.07 mg/kg
COc1ccc(C(=Nc2cccc(OC)c2)NC2CCCCC2)cc1.Cl [Compound 41, N-cyclohexyl, N'-m-methoxyphenyl-p-anisamidine hydrochloride]	2.98 mg/kg
COc1ccccc1C(=Nc1cccc(C)c1)NC1CCCCC1.Cl [Compound 35, N-cyclohexyl, N'-m-tolyl-o-methoxy-benzamidine hydrochloride]	5.15 mg/kg
Cc1ccc(C(=Nc2ccccc2C)NC2CCCCC2)cc1.Cl [Compound 29, N-cyclohexyl, N'-o-tolyl-p-toluamidine hydrochloride]	2.48 mg/kg
COc1ccccc1C(=Nc1ccccc1)NC1CCCCC1.Cl [Compound 34, N-cyclohexyl, N'-phenyl-o-methoxy-benzamidine hydrochloride]	3.58 mg/kg
COc1ccc(C(=Nc2cccc(C)c2)NC2CCCCC2)cc1.Cl [Compound 40, N-cyclohexyl, N'-m-tolyl-p-anisamidine hydrochloride]	2.48 mg/kg
Cc1ccc(N=C(NC2CCCCC2)c2ccccc2C)cc1.Cl [Compound 21, N-cyclohexyl, N'-p-tolyl-o-toluamidine hydrochloride]	3.58 mg/kg
CCc1ccccc1N=C(NC1CCCCC1)c1ccccc1.Cl [Compound 42, N-cyclohexyl, N'-o-ethylphenyl-benzamidine hydrochloride]	4.29 mg/kg

Same assay, conditions: intravenous injection; efficiency ratio relative to codeine phosphate

SMILES	Antitussive Ratio
Cc1ccc(C(=NC2CCCCC2)Nc2ccccc2)cc1 [Compound 10, hydrochloric acid salt of N-cyclohexyl, N'-phenyl-p-toluamidine]	0.83
Cc1ccc(NC(=NC2CCCCC2)c2ccccc2)cc1 [Compound 2, hydrochloric acid salt of N-cyclohexyl, N'-p-tolyl-benzamidine]	0.58
CCc1ccc(N=C(NC2CCCCC2)c2ccccc2)cc1.Cl [Compound 3, N-cyclohexyl, N'-p-ethylphenyl-benzamidine hydrochloride]	0.95
Cc1cccc(NC(=NC2CCCCC2)c2cccc(C)c2)c1 [Compound 9, hydrochloric acid salt of N-cyclohexyl, N'-m-tolyl-m-toluamidine]	1.20
COc1ccccc1N=C(NC1CCCCC1)c1ccccc1.Cl [Compound 5, N-cyclohexyl, N'-o-methoxyphenyl-benzamidine hydrochloride]	0.44
c1ccc(C(=NC2CCCCC2)Nc2cccc3ccccc23)cc1 [Compound 7, N-cyclohexyl, N'-α-naphtyl-benzamidine hydrochloride]	0.79
COc1ccc2c(c1OC)C(=O)O[C@@H]2[C@H]1c2c(cc3c(c2OC)OCO3)CCN1C [Compound 16, noscapine hydrochloride, reference compound]	0.24
Cc1cccc(C(=NC2CCCCC2)Nc2ccccc2)c1 [Compound 8, hydrochloric acid salt of N-cyclohexyl, N'-phenyl-m-toluamidine]	1.20
COc1cccc(N=C(NC2CCCCC2)c2ccccc2)c1.Cl [Compound 6, N-cyclohexyl, N'-m-methoxyphenyl-benzamidine hydrochloride]	1.20
Cc1cccc(NC(=NC2CCCCC2)c2ccccc2)c1C [Compound 4, hydrochloric acid salt of N-cyclohexyl, N'-2,3-xylyl-benzamidine]	1.21
Cc1ccccc1NC(=NC1CCCCC1)c1ccccc1 [Compound 1, hydrochloric acid salt of N-cyclohexyl, N'-o-tolyl-benzamidine]	1.73
COc1ccc2c(c1)[C@]13CCCC[C@@H]1[C@H](C2)N(C)CC3 [Compound 15, dextrometrofan hydrobromide, reference compound]	0.15

Tested on: not listed separately
Experiment: in vivo
Assay type: in vivo
Details: mouse, in vivo, sc, male ddy mice, subcutaneous injection, Litchfield-Wilcoxon
Text: test animals: more than five groups, each group
consisting of five male mice of ddy-

SMILES	LD50 at 72 h
COc1ccc(C(=Nc2ccccc2C)NC2CCCCC2)cc1.Cl [Compound 39, N-cyclohexyl, N'-o-tolyl-p-anisamidine hydrochloride]	172 mg/kg
Cc1ccc(C(=Nc2cccc(C)c2)NC2CCCCC2)cc1.Cl [Compound 32, N-cyclohexyl, N'-m-tolyl-p-toluamidine hydrochloride]	460 mg/kg
Cc1ccc(C(=NC2CCCCC2)Nc2ccccc2)cc1 [Compound 10, hydrochloric acid salt of N-cyclohexyl, N'-phenyl-p-toluamidine]	186 mg/kg
COc1cccc(N=C(NC2CCCCC2)c2ccc(C)cc2)c1.Cl [Compound 33, N-cyclohexyl, N'-m-methoxyphenyl-p-toluamidine hydrochloride]	600 mg/kg
Cc1cccc(C)c1N=C(NC1CCCCC1)c1ccccc1.Cl [Compound 45, N-cyclohexyl, N'-2,6-xylyl-benzamidine hydrochloride]	248 mg/kg
Cc1ccccc1C(=NC1CCCCC1)Nc1cccc(C)c1C [Compound 22, N-cyclohexyl, N'-2,3,-xylyl-o-toluamidine hydrochloride]	> 1000 mg/kg
Cc1ccc(NC(=NC2CCCCC2)c2ccccc2)cc1 [Compound 2, hydrochloric acid salt of N-cyclohexyl, N'-p-tolyl-benzamidine]	186 mg/kg
COc1ccccc1N=C(NC1CCCCC1)c1cccc(C)c1.Cl [Compound 23, N-cyclohexyl, N'-o-methoxyphenyl-m-toluamidine hydrochloride]	100 mg/kg
Cc1ccccc1C(=NC1CCCCC1)Nc1ccccc1 [Compound 18, N-cyclohexyl, N'-phenol-o-toluamidine hydrochloride]	740 mg/kg
CCc1cccc(N=C(NC2CCCCC2)c2ccccc2)c1.Cl [Compound 44, N-cyclohexyl, N'-m-ethylphenyl-benzamidine hydrochloride]	900 mg/kg
Cc1ccccc1N=C(NC1CCCCC1)c1ccccc1C.Cl [Compound 19, N-cyclohexyl, N'-o-tolyl-o-toluamidine hydrochloride]	650 mg/kg
CCc1ccccc1N=C(NC1CCCCC1)c1cccc(C)c1.Cl [Compound 27, N-cyclohexyl, N'-o-ethylphenyl-m-toluamidine hydrochloride]	> 1000 mg/kg
CCc1ccccc1N=C(NC1CCCCC1)c1ccc(C)cc1.Cl [Compound 30, N-cyclohexyl, N'-o-ethylphenyl-p-toluamidine hydrochloride]	> 1000 mg/kg
CCc1ccc(N=C(NC2CCCCC2)c2ccccc2)cc1.Cl [Compound 3, N-cyclohexyl, N'-p-ethylphenyl-benzamidine hydrochloride]	218 mg/kg
COc1cccc(N=C(NC2CCCCC2)c2ccccc2C)c1.O=C(O)C(=O)O [Compound 24, N-cyclohexyl, N'-m-methoxyphenyl-o-toluamidine oxalate]	891 mg/kg
Cc1cccc(NC(=NC2CCCCC2)c2cccc(C)c2)c1 [Compound 9, hydrochloric acid salt of N-cyclohexyl, N'-m-tolyl-m-toluamidine]	445 mg/kg
COc1cccc(N=C(NC2CCCCC2)c2cccc(C)c2)c1.O=C(O)C(=O)O [Compound 28, N-cyclohexyl, N'-m-methoxyphenyl-m-toluamidine oxalate]	743 mg/kg
COc1ccccc1N=C(NC1CCCCC1)c1ccccc1.Cl [Compound 5, N-cyclohexyl, N'-o-methoxyphenyl-benzamidine hydrochloride]	268 mg/kg
Cc1ccc(N=C(NC2CCCCC2)c2cccc(C)c2)cc1.Cl [Compound 25, N-cyclohexyl, N'-p-tolyl-m-toluamidine hydrochloride]	900 mg/kg
c1ccc(C(=NC2CCCCC2)Nc2cccc3ccccc23)cc1 [Compound 7, N-cyclohexyl, N'-α-naphtyl-benzamidine hydrochloride]	> 800 mg/kg

SMILES	LD50 at 72 h
Cc1cc(C)cc(N=C(NC2CCCCC2)c2ccccc2)c1.Cl [Compound 43, N-cyclohexyl, N'-3,5-xylyl-benzamidine hydrochloride]	660 mg/kg
COc1ccc2c(c1OC)C(=O)O[C@@H]2[C@H]1c2c(cc3c(c2OC)OCO3)CCN1C [Compound 16, noscapine hydrochloride, reference compound]	240 mg/kg
Cc1cccc(C(=NC2CCCCC2)Nc2ccccc2)c1 [Compound 8, hydrochloric acid salt of N-cyclohexyl, N'-phenyl-m-toluamidine]	276 mg/kg
Cc1cc(C)c(NC(=NC2CCCCC2)c2ccccc2)c(C)c1 [Compound 46, N-cyclohexyl, N'-2,4,6-trimethyl-phenyl-benzamidine hydrochloride]	120 mg/kg
COc1ccc(C(=Nc2ccccc2)NC2CCCCC2)cc1.Cl [Compound 38, N-cyclohexyl, N'-phenyl-p-anisamidine hydrochloride]	120 mg/kg
COc1cccc(N=C(NC2CCCCC2)c2ccccc2OC)c1.Cl [Compound 37, N-cyclohexyl, N'-m-methoxyphenyl-o-methoxybenzamidine hydrochloride]	207 mg/kg
Cc1cccc(C(=Nc2ccccc2C)NC2CCCCC2)c1.Cl [Compound 26, N-cyclohexyl, N'-o-tolyl-m-toluamidine hydrochloride]	740 mg/kg
Cc1ccc(C(=NC2CCCCC2)Nc2cccc(C)c2C)cc1 [Compound 31, N-cyclohexyl, N'-2,3,-xylyl-p-toluamidine hydrochloride]	> 1000 mg/kg
COc1ccc(C(=Nc2cccc(OC)c2)NC2CCCCC2)cc1.Cl [Compound 41, N-cyclohexyl, N'-m-methoxyphenyl-p-anisamidine hydrochloride]	248 mg/kg
COc1ccccc1C(=Nc1cccc(C)c1)NC1CCCCC1.Cl [Compound 35, N-cyclohexyl, N'-m-tolyl-o-methoxy-benzamidine hydrochloride]	144 mg/kg
COc1cccc(N=C(NC2CCCCC2)c2ccccc2)c1.Cl [Compound 6, N-cyclohexyl, N'-m-methoxyphenyl-benzamidine hydrochloride]	78 mg/kg
Cc1ccc(C(=Nc2ccccc2C)NC2CCCCC2)cc1.Cl [Compound 29, N-cyclohexyl, N'-o-tolyl-p-toluamidine hydrochloride]	620 mg/kg
Cc1cccc(NC(=NC2CCCCC2)c2ccccc2)c1C [Compound 4, hydrochloric acid salt of N-cyclohexyl, N'-2,3-xylyl-benzamidine]	117 mg/kg
Cc1cccc(N=C(NC2CCCCC2)c2ccccc2C)c1.Cl [Compound 20, N-cyclohexyl, N'-m-tolyl-o-toluamidine hydrochloride]	> 100 mg/kg
Cc1ccccc1NC(=NC1CCCCC1)c1ccccc1 [Compound 1, hydrochloric acid salt of N-cyclohexyl, N'-o-tolyl-benzamidine]	242 mg/kg
COc1ccccc1C(=Nc1ccccc1)NC1CCCCC1.Cl [Compound 34, N-cyclohexyl, N'-phenyl-o-methoxy-benzamidine hydrochloride]	100 mg/kg
COc1ccc2c(c1)[C@]13CCCC[C@@H]1[C@H](C2)N(C)CC3 [Compound 15, dextrometrofan hydrobromide, reference compound]	153 mg/kg
COc1ccc(C(=Nc2cccc(C)c2)NC2CCCCC2)cc1.Cl [Compound 40, N-cyclohexyl, N'-m-tolyl-p-anisamidine hydrochloride]	298 mg/kg
Cc1ccc(N=C(NC2CCCCC2)c2ccccc2C)cc1.Cl [Compound 21, N-cyclohexyl, N'-p-tolyl-o-toluamidine hydrochloride]	160 mg/kg
CCc1ccccc1N=C(NC1CCCCC1)c1ccccc1.Cl [Compound 42, N-cyclohexyl, N'-o-ethylphenyl-benzamidine hydrochloride]	> 1000 mg/kg

Source: US3988364A, “Novel N,N-di-substituted amidines and several acid-addition salts thereof” (Toyo Jozo Kabushiki Kaisha, priority 1972, dated 1976)
